Calls of active or inactive are those of the source. The calls are words filed in the database; no cut-off is given here.

This is an account of results in ChEMBL document CHEMBL5346877, “A-ring-fused pyrazoles of dihydrotestosterone targeting prostate cancer cells via the downregulation of the androgen receptor” (Eur J Med Chem, 2023).

The first assay deals with LAPC4. Nature of the assay: Cytotoxicity against human LAPC4 cells assessed as cell viability at 20 uM incubated for 72 hrs by resazurin dye based microplate reader assay. It is filed as functional. The conditions noted are these: read-out: Activity. In general terms: The colour change of resazurin is a common sign of viable cells or microbes.
Consider `C[C@]12Cc3cn(-c4ccc(Cl)cc4)nc3C[C@@H]1CC[C@@H]1[C@@H]2CC[C@]2(C)[C@@H](O)CC[C@@H]12`, for which the viability at 20 µM is 82%.

Regarding `Cn1nc2c(c1-c1ccccc1)C[C@@]1(C)[C@@H](CC[C@@H]3[C@@H]1CC[C@]1(C)[C@@H](O)CC[C@@H]31)C2`, the viability at 20 µM stood at 51%.

Take `Cn1nc2c(c1-c1ccc(Cl)cc1)C[C@@]1(C)[C@@H](CC[C@@H]3[C@@H]1CC[C@]1(C)[C@@H](O)CC[C@@H]31)C2`: the viability at 20 µM was found to be 41%.

On to `Cn1nc2c(c1-c1ccccc1)C[C@@]1(C)[C@@H](CC[C@@H]3[C@@H]1CC[C@]1(C)C(=O)CC[C@@H]31)C2`, for which the viability at 20 µM came out at 36%.

`COc1ccc(-c2c3c(nn2C)C[C@@H]2CC[C@@H]4[C@H](CC[C@]5(C)C(=O)CC[C@@H]45)[C@@]2(C)C3)cc1`: the viability at 20 µM came to 35%.

For `COc1ccc(-c2c3c(nn2C)C[C@@H]2CC[C@@H]4[C@H](CC[C@]5(C)[C@@H](O)CC[C@@H]45)[C@@]2(C)C3)cc1`, the viability at 20 µM is 51%.

The test system of the next assay is LAPC4. Put plainly: Downregulation of PSA protein expression in human LAPC4 cells at 10 uM incubated for 24 hrs by immunoblotting analysis. It is filed as functional, cell-based.
Conditions: not given
For orientation: In western blotting, separated proteins are transferred to a membrane and probed.
As to `C[C@]12Cc3cn(-c4ccc(Cl)cc4)nc3C[C@@H]1CC[C@@H]1[C@@H]2CC[C@]2(C)[C@@H](O)CC[C@@H]12`, the outcome was inactive.

Another assay relates to CWR22R. Put plainly: Cytotoxicity against human 22Rv1 cells assessed as cell viability at 20 uM incubated for 72 hrs by resazurin dye based microplate reader assay. Format: functional. The conditions noted are these: read-out: Activity.
For `C[C@]12Cc3cn(-c4ccc(Cl)cc4)nc3C[C@@H]1CC[C@@H]1[C@@H]2CC[C@]2(C)[C@@H](O)CC[C@@H]12`, the viability at 20 µM was at least 100%.

Take `Cn1nc2c(c1-c1ccccc1)C[C@@]1(C)[C@@H](CC[C@@H]3[C@@H]1CC[C@]1(C)[C@@H](O)CC[C@@H]31)C2`: the viability at 20 µM came to 48%.

As to `Cn1nc2c(c1-c1ccc(Cl)cc1)C[C@@]1(C)[C@@H](CC[C@@H]3[C@@H]1CC[C@]1(C)[C@@H](O)CC[C@@H]31)C2`, the viability at 20 µM was found to be 29%.

As to `Cn1nc2c(c1-c1ccccc1)C[C@@]1(C)[C@@H](CC[C@@H]3[C@@H]1CC[C@]1(C)C(=O)CC[C@@H]31)C2`, the viability at 20 µM turned out to be 68%.

With `COc1ccc(-c2c3c(nn2C)C[C@@H]2CC[C@@H]4[C@H](CC[C@]5(C)C(=O)CC[C@@H]45)[C@@]2(C)C3)cc1`, the viability at 20 µM came out at 58%.

Consider `COc1ccc(-c2c3c(nn2C)C[C@@H]2CC[C@@H]4[C@H](CC[C@]5(C)[C@@H](O)CC[C@@H]45)[C@@]2(C)C3)cc1`, for which the viability at 20 µM stood at 33%.

Another assay has as its system LAPC4. Nature of the assay: Downregulation of Nkx3.1 protein expression in human LAPC4 cells at 10 uM incubated for 24 hrs by immunoblotting analysis. Format: functional, cell-based.
Conditions: not given
As to `C[C@]12Cc3cn(-c4ccc(Cl)cc4)nc3C[C@@H]1CC[C@@H]1[C@@H]2CC[C@]2(C)[C@@H](O)CC[C@@H]12`, the outcome was inactive.

In the next assay the test system is LAPC4. Nature of the assay: Inhibition of colony formation in human LAPC4 cells at 5 uM incubated for 10 days by crystal violet staining based assay. Format: functional, cell-based. Conditions: time 10.0 day.
What is called inhibition is the relative decrease from the control value, in per cent. As for `Cn1nc2c(c1-c1ccccc1)C[C@@]1(C)[C@@H](CC[C@@H]3[C@@H]1CC[C@]1(C)[C@@H](O)CC[C@@H]31)C2`, the inhibition result was “Active”.

As for `Cn1nc2c(c1-c1ccc(Cl)cc1)C[C@@]1(C)[C@@H](CC[C@@H]3[C@@H]1CC[C@]1(C)[C@@H](O)CC[C@@H]31)C2`, the inhibition entry is “Active”.

For `Cn1nc2c(c1-c1ccccc1)C[C@@]1(C)[C@@H](CC[C@@H]3[C@@H]1CC[C@]1(C)C(=O)CC[C@@H]31)C2`, the inhibition result was “Active”.

In the case of `COc1ccc(-c2c3c(nn2C)C[C@@H]2CC[C@@H]4[C@H](CC[C@]5(C)C(=O)CC[C@@H]45)[C@@]2(C)C3)cc1`, the inhibition result was “Active”.

Regarding `COc1ccc(-c2c3c(nn2C)C[C@@H]2CC[C@@H]4[C@H](CC[C@]5(C)[C@@H](O)CC[C@@H]45)[C@@]2(C)C3)cc1`, the inhibition result is “Active”.

Test system in the next assay: not listed separately
Nature of the assay: Downregulation of AR protein expression in human LAPC4 cells assessed as AR levels at 10 uM incubated for 24 hrs by immunoblotting analysis.
Conditions: not given
It is filed as functional.
As for `C[C@]12Cc3cn(-c4ccc(Cl)cc4)nc3C[C@@H]1CC[C@@H]1[C@@H]2CC[C@]2(C)[C@@H](O)CC[C@@H]12`, the Activity entry was “>=100%”.

For the compound `Cn1nc2c(c1-c1ccccc1)C[C@@]1(C)[C@@H](CC[C@@H]3[C@@H]1CC[C@]1(C)[C@@H](O)CC[C@@H]31)C2`, the Activity is recorded as 93%.

As for `Cn1nc2c(c1-c1ccc(Cl)cc1)C[C@@]1(C)[C@@H](CC[C@@H]3[C@@H]1CC[C@]1(C)[C@@H](O)CC[C@@H]31)C2`, the Activity is recorded as 91%.

As for `Cn1nc2c(c1-c1ccccc1)C[C@@]1(C)[C@@H](CC[C@@H]3[C@@H]1CC[C@]1(C)C(=O)CC[C@@H]31)C2`, the Activity was determined as 65%.

`COc1ccc(-c2c3c(nn2C)C[C@@H]2CC[C@@H]4[C@H](CC[C@]5(C)C(=O)CC[C@@H]45)[C@@]2(C)C3)cc1`: the Activity result is given as “>=100%”.

Take `COc1ccc(-c2c3c(nn2C)C[C@@H]2CC[C@@H]4[C@H](CC[C@]5(C)[C@@H](O)CC[C@@H]45)[C@@]2(C)C3)cc1`: the Activity was 85%.

Another assay deals with DU-145. Put plainly: Cytotoxicity against human DU-145 cells assessed as cell viability at 20 uM incubated for 72 hrs by resazurin dye based microplate reader assay. Format: functional. The conditions noted are these: read-out: Activity.
For the compound `C[C@]12Cc3cn(-c4ccc(Cl)cc4)nc3C[C@@H]1CC[C@@H]1[C@@H]2CC[C@]2(C)[C@@H](O)CC[C@@H]12`, the viability at 20 µM was at least 100%.

Regarding `Cn1nc2c(c1-c1ccccc1)C[C@@]1(C)[C@@H](CC[C@@H]3[C@@H]1CC[C@]1(C)[C@@H](O)CC[C@@H]31)C2`, the viability at 20 µM was 100%.

On to `Cn1nc2c(c1-c1ccc(Cl)cc1)C[C@@]1(C)[C@@H](CC[C@@H]3[C@@H]1CC[C@]1(C)[C@@H](O)CC[C@@H]31)C2`, for which the viability at 20 µM is 90%.

Consider `Cn1nc2c(c1-c1ccccc1)C[C@@]1(C)[C@@H](CC[C@@H]3[C@@H]1CC[C@]1(C)C(=O)CC[C@@H]31)C2`, for which the viability at 20 µM was at least 100%.

With `COc1ccc(-c2c3c(nn2C)C[C@@H]2CC[C@@H]4[C@H](CC[C@]5(C)C(=O)CC[C@@H]45)[C@@]2(C)C3)cc1`, the viability at 20 µM is 97%.

On to `COc1ccc(-c2c3c(nn2C)C[C@@H]2CC[C@@H]4[C@H](CC[C@]5(C)[C@@H](O)CC[C@@H]45)[C@@]2(C)C3)cc1`, for which the viability at 20 µM is at least 100%.

The test system of the next assay is LAPC4. Put plainly: Inhibition of colony formation in human LAPC4 cells at 10 uM incubated for 10 days by crystal violet staining based assay. Format: functional. Conditions: LAPC4, 240 h, time 10 day.
Regarding `C[C@]12Cc3cn(-c4ccc(Cl)cc4)nc3C[C@@H]1CC[C@@H]1[C@@H]2CC[C@]2(C)[C@@H](O)CC[C@@H]12`, the inhibition at 10 µM was found to be 98%.

On to `Cn1nc2c(c1-c1ccccc1)C[C@@]1(C)[C@@H](CC[C@@H]3[C@@H]1CC[C@]1(C)[C@@H](O)CC[C@@H]31)C2`, for which testing at 10 µM gave an inhibition of 2%.

Compound `Cn1nc2c(c1-c1ccc(Cl)cc1)C[C@@]1(C)[C@@H](CC[C@@H]3[C@@H]1CC[C@]1(C)[C@@H](O)CC[C@@H]31)C2` had an inhibition at 10 µM of 26%.

Compound `Cn1nc2c(c1-c1ccccc1)C[C@@]1(C)[C@@H](CC[C@@H]3[C@@H]1CC[C@]1(C)C(=O)CC[C@@H]31)C2` showed an inhibition at 10 µM of 21%.

As to `COc1ccc(-c2c3c(nn2C)C[C@@H]2CC[C@@H]4[C@H](CC[C@]5(C)C(=O)CC[C@@H]45)[C@@]2(C)C3)cc1`, the inhibition at 10 µM is 34%.

Turning to `COc1ccc(-c2c3c(nn2C)C[C@@H]2CC[C@@H]4[C@H](CC[C@]5(C)[C@@H](O)CC[C@@H]45)[C@@]2(C)C3)cc1`, the inhibition at 10 µM came out at 5%.
